Data reported in US12559461B2, “Antibiotic adjuvant compounds” (UNIVERSITY OF NOTRE DAME DU LAC, priority 2020, dated 2026).
Read-outs that look alike come from different tables or passages of the source.

Tests used:
Assay type in all cases: cell-based, Acinetobacter baumannii
[1] = system: A. baumannii isolates (23 strains); test: Clarithromycin potentiation against AB isolates; settings: adjuvant at 10 μM
Method: Broth microdilution method for antibiotic potentiation. Day cultures (6 h) of bacteria in CAMHB were subcultured to 5×10^5 CFU/mL in CAMHB. Aliquots (4 mL) were placed in culture tubes and dosed with compound from 10 mM stock samples to give the desired concentration of the compound to be tested against the particular bacterial strain; this insured non-toxic DMSO concentrations ≤0.3% in each well. 1 mL of the resulting solution was placed in a separate culture and dosed with antibiotic at the highest concentration to be tested. Bacteria treated with antibiotic alone served as the control. Row one of a 96-well plate was filled with 200 μL of the antibiotic/2-AI solution, and rows 2-12 were filled with 100 μL each of the remaining 4 mL of bacterial subculture containing adjuvant at the desired concentration, except for the control lane which contained only bacterial subculture. Row one was then mixed five times, and 100 μL was transferred to row two, which was then mixed five times before being transferred to row three. This process was repeated until all rows had been mixed, except for row twelve which would have only 2-AI to serve as a control to monitor potential toxicity. The 96-well plate was then covered in Glad Press n'Seal and incubated under stationary conditions at 37° C. for 16 h. MIC values were determined as the lowest concentration at which no bacterial growth was observed, and fold reductions were determined by comparison to antibiotic control lane.

[2] = system: A. baumannii isolates (23 strains); test: Minimum inhibitory concentration against AB isolates; settings: Acinetobacter baumannii, compound alone
Method: Broth microdilution method for MIC determination. Day cultures (6 h) of each bacterial strain in cation adjusted Mueller Hinton II broth (CAMHB, Fisher Scientific U.S.) were subcultured to 5×10^5 CFU/mL in CAMHB. Aliquots (1 mL) were placed in culture tubes and compound was added from 10 mM stock samples in DMSO, such that compound concentration equaled highest concentration tested (200 μM). Samples were then aliquoted (200 μL) into the first wells of a 96-well plate, with all remaining wells being filled with 100 μL of initial bacterial subculture. Row one wells were mixed five times, before 100 μL was transferred to row two. Row two was then mixed five times, and 100 μL was transferred to row three. This process was repeated until the final row had been mixed; this served to serially dilute the compound. Plates were then covered with GLAD Press n'Seal and incubated under stationary conditions at 37° C. for 16 h. MIC values were then recorded as the lowest concentration at which no bacterial growth was observed.

AB5075 [3] = test: Broth microdilution clarithromycin (CLR) potentiation and dose-response of adjuvant
Method in brief: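 A. baumannii AB5075 at 5×10^5 CFU/mL in CAMHB with fixed adjuvant (DMSO ≤0.3%) and two-fold serially diluted clarithromycin or colistin, stationary 16 h at 37° C. MIC = lowest concentration without visible growth; fold reduction versus antibiotic alone. Dose-response used adjuvant at 0–30 μM.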

AB5075 [4] = test: Broth microdilution MIC of compound alone (standalone toxicity)
Method in brief: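 A. baumannii 5075 subcultured to 5×10^5 CFU/mL in cation-adjusted Mueller-Hinton broth; compound twofold serially diluted from 200 μM (DMSO stock) and incubated stationary at 37° C for 16 h. MIC taken as lowest concentration with no visible growth; duplicates, repeated at least twice.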

- CLR MIC + adjuvant ([1]; A. baumannii strain 3560): 2 µg/mL
- CLR MIC + adjuvant ([1]; A. baumannii strain 3785): 4 µg/mL
- CLR MIC + adjuvant ([1]; A. baumannii strain 3806): 0.5 µg/mL
- CLR MIC + adjuvant ([1]; A. baumannii strain 3927): 2 µg/mL
- CLR MIC + adjuvant ([1]; A. baumannii strain 4025): 1 µg/mL
- CLR MIC + adjuvant ([1]; A. baumannii strain 4026): 4 µg/mL
- CLR MIC + adjuvant ([1]; A. baumannii strain 4027): 1 µg/mL
- CLR MIC + adjuvant ([1]; A. baumannii strain 4052): 1 µg/mL
- CLR MIC + adjuvant ([1]; A. baumannii strain 4269): 2 µg/mL
- CLR MIC + adjuvant ([1]; A. baumannii strain 4448): 2 µg/mL
- CLR MIC + adjuvant ([1]; A. baumannii strain 4456): 2 µg/mL
- CLR MIC + adjuvant ([1]; A. baumannii strain 4490): 2 µg/mL
- CLR MIC + adjuvant ([1]; A. baumannii strain 4498): 2 µg/mL
- CLR MIC + adjuvant ([1]; A. baumannii strain 4795): 2 µg/mL
- CLR MIC + adjuvant ([1]; A. baumannii strain 4857): 1 µg/mL
- CLR MIC + adjuvant ([1]; A. baumannii strain 4878): 2 µg/mL
- CLR MIC + adjuvant ([1]; A. baumannii strain 4957): 4 µg/mL
- CLR MIC + adjuvant ([1]; A. baumannii strain 4991): 2 µg/mL
- CLR MIC + adjuvant ([1]; A. baumannii strain 5001): 4 µg/mL
- CLR MIC + adjuvant ([1]; A. baumannii strain 5197): 2 µg/mL
- CLR MIC + adjuvant ([1]; A. baumannii strain 5256): 1 µg/mL
- CLR MIC + adjuvant ([1]; A. baumannii strain 5711): 4 µg/mL
- CLR MIC + adjuvant ([1]; A. baumannii strain 8967): 1 µg/mL
- MIC ([2]; A. baumannii strain 3560, read-out: Minimum inhibitory concentration of compound): 50 µM
- MIC ([2]; A. baumannii strain 3785, read-out: Minimum inhibitory concentration of compound): 200 µM
- MIC ([2]; A. baumannii strain 3806, read-out: Minimum inhibitory concentration of compound): 200 µM
- MIC ([2]; A. baumannii strain 3927, read-out: Minimum inhibitory concentration of compound): > 200 µM
- MIC ([2]; A. baumannii strain 4025, read-out: Minimum inhibitory concentration of compound): 100 µM
- MIC ([2]; A. baumannii strain 4026, read-out: Minimum inhibitory concentration of compound): 100 µM
- MIC ([2]; A. baumannii strain 4027, read-out: Minimum inhibitory concentration of compound): 200 µM
- MIC ([2]; A. baumannii strain 4052, read-out: Minimum inhibitory concentration of compound): > 200 µM
- MIC ([2]; A. baumannii strain 4269, read-out: Minimum inhibitory concentration of compound): > 200 µM
- MIC ([2]; A. baumannii strain 4448, read-out: Minimum inhibitory concentration of compound): > 200 µM
- MIC ([2]; A. baumannii strain 4456, read-out: Minimum inhibitory concentration of compound): 50 µM
- MIC ([2]; A. baumannii strain 4490, read-out: Minimum inhibitory concentration of compound): > 200 µM
- MIC ([2]; A. baumannii strain 4498, read-out: Minimum inhibitory concentration of compound): 100 µM
- MIC ([2]; A. baumannii strain 4795, read-out: Minimum inhibitory concentration of compound): 100 µM
- MIC ([2]; A. baumannii strain 4857, read-out: Minimum inhibitory concentration of compound): 50 µM
- MIC ([2]; A. baumannii strain 4878, read-out: Minimum inhibitory concentration of compound): 200 µM
- MIC ([2]; A. baumannii strain 4957, read-out: Minimum inhibitory concentration of compound): > 200 µM
- MIC ([2]; A. baumannii strain 4991, read-out: Minimum inhibitory concentration of compound): > 200 µM
- MIC ([2]; A. baumannii strain 5001, read-out: Minimum inhibitory concentration of compound): > 200 µM
- MIC ([2]; A. baumannii strain 5197, read-out: Minimum inhibitory concentration of compound): > 200 µM
- MIC ([2]; A. baumannii strain 5256, read-out: Minimum inhibitory concentration of compound): > 200 µM
- MIC ([2]; A. baumannii strain 5711, read-out: Minimum inhibitory concentration of compound): > 200 µM
- MIC ([2]; A. baumannii strain 8967, read-out: Minimum inhibitory concentration of compound): > 200 µM
- MIC ([2]; remaining 20 strains, read-out: MIC values): ≥ 100 µM
- MIC ([2]; three of the AB isolates, read-out: MIC values): 50 µM
- CLR MIC (AB5075 [3]; compound tested at 5 μM): 8 µg/mL
- Fold Reduction of CLR MIC (AB5075 [3]; compound tested at 5 μM): 4 fold
- CLR MIC (AB5075 [3]; compound tested at 7.5 μM): 1 µg/mL
- Fold Reduction of CLR MIC (AB5075 [3]; compound tested at 7.5 μM): 32 fold
- CLR MIC (AB5075 [3]; compound tested at 10 μM): 0.5 µg/mL
- Fold Reduction of CLR MIC (AB5075 [3]; compound tested at 10 μM): 64 fold
- CLR MIC (AB5075 [3]; compound tested at 20 μM): 0.5 µg/mL
- Fold Reduction of CLR MIC (AB5075 [3]; compound tested at 20 μM): 64 fold
- CLR MIC (AB5075 [3]; compound tested at 30 μM): 0.5 µg/mL
- Fold Reduction of CLR MIC (AB5075 [3]; compound tested at 30 μM): 64 fold
Structure (SMILES): Cl.Nc1nc(-c2ccc(NC(=O)c3ccc(Cl)c(Cl)c3)cc2F)c[nH]1 [Compound 15b, N-(4-(2-amino-1H-imidazol-4-yl)-3-fluorophenyl)-3,4-dichlorobenzamide hydrochloride]
- MIC (AB5075 [4]; Acinetobacter baumannii): > 200 µM
- MIC (AB5075 [4]; hydrochloride): >200 µM
